Results from patent publication US9718788B2, “Heteroaryl compounds useful as inhibitors of E1 activating enzymes” (MILLENNIUM PHARMACEUTICALS, INC., priority 2006, dated 2017).

The compounds below were run against T1, recombinant human NAE enzyme (Homo sapiens, UniProt Q8TBC4) (assay: Nedd8-Activating Enzyme (NAE) HTRF Assay). Conditions: 20 μM ATP, bound given in nM.
T1 construct: His (N); made in house; host or cells: Sf9 insect cells (baculovirus, Bac-to-Bac)
T1 sequence (Q8TBC4 1-463): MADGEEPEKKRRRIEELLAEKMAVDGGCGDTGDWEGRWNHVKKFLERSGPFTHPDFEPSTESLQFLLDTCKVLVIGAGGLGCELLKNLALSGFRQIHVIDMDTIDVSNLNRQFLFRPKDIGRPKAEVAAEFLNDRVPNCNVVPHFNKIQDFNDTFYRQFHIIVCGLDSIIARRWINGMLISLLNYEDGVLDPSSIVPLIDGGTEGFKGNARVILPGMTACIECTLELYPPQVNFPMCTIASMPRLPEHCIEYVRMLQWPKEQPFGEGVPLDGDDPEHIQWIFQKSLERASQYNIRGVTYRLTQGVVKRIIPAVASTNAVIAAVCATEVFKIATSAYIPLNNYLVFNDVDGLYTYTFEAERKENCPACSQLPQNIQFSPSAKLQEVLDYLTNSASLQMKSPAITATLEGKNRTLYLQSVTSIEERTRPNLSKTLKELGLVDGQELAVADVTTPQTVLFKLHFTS
T1 sequence (Q13564 1-534 partner): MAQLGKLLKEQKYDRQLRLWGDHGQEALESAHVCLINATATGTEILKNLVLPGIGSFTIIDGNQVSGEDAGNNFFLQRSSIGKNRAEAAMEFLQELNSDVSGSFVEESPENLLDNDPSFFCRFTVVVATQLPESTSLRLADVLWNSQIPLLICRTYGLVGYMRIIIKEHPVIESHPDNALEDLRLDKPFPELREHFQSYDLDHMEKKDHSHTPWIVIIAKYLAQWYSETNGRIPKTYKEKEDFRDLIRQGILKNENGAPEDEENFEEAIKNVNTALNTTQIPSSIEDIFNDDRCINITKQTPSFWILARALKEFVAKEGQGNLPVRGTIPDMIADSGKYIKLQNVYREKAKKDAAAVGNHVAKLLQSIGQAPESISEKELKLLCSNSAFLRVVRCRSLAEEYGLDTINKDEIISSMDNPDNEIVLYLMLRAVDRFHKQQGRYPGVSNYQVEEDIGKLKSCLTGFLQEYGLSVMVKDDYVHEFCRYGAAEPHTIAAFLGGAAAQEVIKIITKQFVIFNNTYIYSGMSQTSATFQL
Format: biochemical
In short: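 Recombinant human NAE (NAEα/His-NAEβ from Sf9 cells) at 0.20 nM with 20 μM ATP, 0.01 μM Ubc12-GST and 0.075 μM Nedd8-Flag in HEPES pH 7.5, 105 min at 24° C. EDTA stop; Eu-anti-FLAG/APC-anti-GST HTRF read after 1 h.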

| SMILES | IC50 |
| --- | --- |
| NS(=O)(=O)OC[C@H]1C[C@@H](Nc2cc(N[C@H]3CCc4cc(F)c(F)cc43)ncn2)[C@H](O)[C@@H]1O [Compound I-17, {(1R,2R,3S,4R)-4-[(6-{[(1S)-5,6-difluoro-2,3-dihydro-1H-inden-1-yl]amino}-pyrimidin-4-yl)amino]-2,3-dihydroxycyclopentyl}methyl sulfamate] | ≤ 500 nM |
| NS(=O)(=O)OC[C@@H]1C[C@@H](Oc2ncnc3[nH]c(-c4ccccc4)nc23)C[C@@H]1O [Compound I-63, {(1S,2S,4R)-2-hydroxy-4-[(8-phenyl-9H-purin-6-yl)oxy]cyclopentyl}methyl sulfamate] | ≤ 500 nM |
| NS(=O)(=O)OC[C@@H]1C[C@@H](Nc2ncnc3[nH]c(Cc4ccccc4)nc23)C[C@@H]1O [Compound I-88, {(1S,2S,4R)-4-[(8-benzyl-9H-purin-6-yl)amino]-2-hydroxycyclopentyl}methyl sulfamate] | ≤ 500 nM |
| NS(=O)(=O)OC[C@@H]1C[C@@H](Oc2ncnc3nc(-c4ccnc5cc(Cl)ccc45)[nH]c23)C[C@@H]1O [Compound I-73, ((1S,2S,4R)-4-{[8-(7-chloroquinolin-4-yl)-7H-purin-6-yl]oxy}-2-hydroxycyclopentyl)methyl sulfamate] | ≤ 500 nM |
| CC1(C)C[C@H](Nc2ncnc(N[C@@H]3C[C@@H](COS(N)(=O)=O)[C@@H](O)C3)n2)c2ccccc21 [Compound I-134, {(1S,2S,4R)-4-[(4-{[(1S)-3,3-dimethyl-2,3-dihydro-1H-inden-1-yl]amino}-1,3,5-triazin-2-yl)amino]-2-hydroxycyclopentyl}methyl sulfamate] | ≤ 500 nM |
| NS(=O)(=O)OC[C@@H]1C[C@@H](Nc2ncnc3[nH]c(-c4cccc5ccccc45)cc23)C[C@@H]1O [Compound I-74, ((1S,2S,4R)-2-hydroxy-4-{[6-(1-naphthyl)-7H-pyrrolo[2,3-d]pyrimidin-4-yl]amino}cyclopentyl)methyl sulfamate] | ≤ 500 nM |
| Cc1cccc(Sc2nc3ncnc(O[C@@H]4C[C@@H](COS(N)(=O)=O)[C@@H](O)C4)c3[nH]2)c1 [Compound I-136, [(1S,2S,4R)-2-hydroxy-4-({8-[(3-methylphenyl)sulfanyl]-7H-purin-6-yl}oxy)cyclopentyl]methyl sulfamate] | ≤ 500 nM |
| Cc1nc(N[C@H]2CCc3ccccc32)nc(N[C@@H]2C[C@H](COS(N)(=O)=O)[C@@H](O)[C@H]2O)n1 [Compound I-45, [(1R,2R,3S,4R)-4-({4-[(1S)-2,3-dihydro-1H-inden-1-ylamino]-6-methyl-1,3,5-triazin-2-yl}amino)-2,3-dihydroxycyclopentyl]methyl sulfamate] | ≤ 500 nM |
| CN(C)c1ccc(-c2nc3ncnc(O[C@@H]4C[C@@H](COS(N)(=O)=O)[C@@H](O)C4)c3[nH]2)c2ccccc12 [Compound I-103, [(1S,2S,4R)-4-({8-[4-(dimethylamino)-1-naphthyl]-7H-purin-6-yl}oxy)-2-hydroxycyclopentyl]methyl sulfamate] | ≤ 500 nM |
| COc1cccc(-c2nc3c(N[C@@H]4C[C@@H](COS(N)(=O)=O)[C@@H](O)C4)ncnc3[nH]2)c1OC [Compound I-67, ((1S,2S,4R)-4-{[8-(2,3-dimethoxyphenyl)-9H-purin-6-yl]amino}-2-hydroxycyclopentyl)methyl sulfamate] | ≤ 500 nM |
| CC1(C)Cc2cccc(-c3nc4c(N[C@@H]5C[C@@H](COS(N)(=O)=O)[C@@H](O)C5)ncnc4[nH]3)c2O1 [Compound I-100, ((1S,2S,4R)-4-{[8-(2,2-dimethyl-2,3-dihydro-1-benzofuran-7-yl)-9H-purin-6-yl]amino}-2-hydroxycyclopentyl)methyl sulfamate] | ≤ 500 nM |

Next, values leading:

| IC50 | SMILES |
| --- | --- |
| ≤ 500 nM | CO[C@H]1CCc2ccccc2[C@H]1Nc1cc(O[C@@H]2C[C@@H](COS(N)(=O)=O)[C@@H](O)C2)ncn1 [Compound I-142, {(1S,2S,4R)-2-hydroxy-4-[(6-{[(1R,2S)-2-methoxy-1,2,3,4-tetrahydronaphthalen-1-yl]amino}pyrimidin-4-yl)oxy]cyclopentyl}methyl sulfamate] |
| > 500 nM | NS(=O)(=O)OC[C@@H]1C[C@@H](Oc2cc(N3Cc4ccccc4C3)ncn2)C[C@@H]1O [Compound I-120, ((1S,2S,4R)-4-{[6-(1,3-dihydro-2H-isoindol-2-yl)pyrimidin-4-yl]oxy}-2-hydroxycyclopentyl)methyl sulfamate] |
| ≤ 500 nM | CO[C@@H]1CCc2ccccc2[C@@H]1Nc1cc(O[C@@H]2C[C@@H](COS(N)(=O)=O)[C@@H](O)C2)ncn1 [Compound I-143, {(1S,2S,4R)-2-hydroxy-4-[(6-{[(1S,2R)-2-methoxy-1,2,3,4-tetrahydronaphthalen-1-yl]amino}pyrimidin-4-yl)oxy]cyclopentyl}methyl sulfamate] |
| > 500 nM | NS(=O)(=O)OC[C@@H]1C[C@@H](Oc2cc(OCc3cccc4ccccc34)ncn2)C[C@@H]1O [Compound I-119, ((1S,2S,4R)-2-hydroxy-4-{[6-(1-naphthylmethoxy)pyrimidin-4-yl]oxy}cyclopentyl)methyl sulfamate] |
| ≤ 500 nM | CO[C@H]1Cc2ccccc2[C@H]1Nc1cc(O[C@@H]2C[C@@H](COS(N)(=O)=O)[C@@H](O)C2)ncn1 [Compound I-115, {(1S,2S,4R)-2-hydroxy-4-[(6-{[(1R,2S)-2-methoxy-2,3-dihydro-1H-inden-1-yl]amino}pyrimidin-4-yl)oxy]cyclopentyl}methyl sulfamate] |

Same assay, conditions: 20 μM ATP, bound given in μM

| SMILES | IC50 |
| --- | --- |
| NS(=O)(=O)OC[C@H]1C[C@@H](NC(=O)c2ccccn2)[C@H](O)[C@@H]1O [Compound I-23, {(1R,2R,3S,4R)-2,3-dihydroxy-4-[(pyridin-2-ylcarbonyl)amino]cyclopentyl}-methyl sulfamate] | > 10000 nM |
| NS(=O)(=O)OC[C@H]1C[C@@H](Nc2ccnc(C(=O)N[C@H]3CCc4ccccc43)c2)[C@H](O)[C@@H]1O [Compound I-144, {(1R,2R,3S,4R)-4-[(2-{[(1S)-2,3-dihydro-1H-inden-1-ylamino]carbonyl}pyridin-4-yl)-amino]-2,3-dihydroxycyclopentyl}methyl sulfamate] | > 10000 nM |
| NS(=O)(=O)OC[C@H]1C[C@@H](Nc2ccnc(C(=O)N3CCc4ccccc43)c2)[C@H](O)[C@@H]1O [Compound I-145, ((1R,2R,3S,4R)-4-{[2-(2,3-dihydro-1H-indol-1-ylcarbonyl)pyridin-4-yl]amino}-2,3-dihydroxycyclopentyl)methyl sulfamate] | > 10000 nM |

Continued, values first:

| IC50 | SMILES |
| --- | --- |
| > 10000 nM | NS(=O)(=O)OC[C@H]1C[C@@H](O)[C@H](Nc2cc(N[C@H]3CCc4ccccc43)ncn2)C1 [Compound I-58, [(1R,3R,4R)-3-({6-[(1S)-2,3-dihydro-1H-inden-1-ylamino]pyrimidin-4-yl}-amino)-4-hydroxycyclopentyl]methyl sulfamate] |
| < 10000 nM | NS(=O)(=O)OC[C@@H]1C[C@@H](Oc2cc(N3Cc4ccccc4C3)ncn2)C[C@@H]1O [Compound I-120, ((1S,2S,4R)-4-{[6-(1,3-dihydro-2H-isoindol-2-yl)pyrimidin-4-yl]oxy}-2-hydroxycyclopentyl)methyl sulfamate] |
| > 10000 nM | NS(=O)(=O)OC[C@@H]1C[C@@H](Oc2cc(N[C@H]3CCc4ccccc43)ncn2)C[C@@H]1O [Compound I-31, [(1S,2S,4R)-4-({6-[(1S)-2,3-Dihydro-1H-inden-1-ylamino]pyrimidin-4-yl}oxy)-2-hydroxycyclopentyl]methyl sulfamate] |
| < 10000 nM | NS(=O)(=O)OC[C@@H]1C[C@@H](Oc2cc(OCc3cccc4ccccc34)ncn2)C[C@@H]1O [Compound I-119, ((1S,2S,4R)-2-hydroxy-4-{[6-(1-naphthylmethoxy)pyrimidin-4-yl]oxy}cyclopentyl)methyl sulfamate] |
| > 10000 nM | NS(=O)(=O)OC[C@@H]1C[C@@H](O)[C@H](Nc2cc(N[C@H]3CCc4ccccc43)ncn2)C1 [Compound I-76, [(1S,3R,4R)-3-({6-[(1S)-2,3-dihydro-1H-inden-1-ylamino]pyrimidin-4-yl}amino)-4-hydroxycyclopentyl]methyl sulfamate] |
